Reference: US20240228504A1, “SUBSTITUTED TRICYCLIC AMIDES, ANALOGUES THEREOF, AND METHODS USING SAME” (Arbutus Biopharma Corporation, priority 2020, published 2024)

test system: HBV rcDNA in HepDE19 cells; assay: HepDE19 assay with bDNA quantitation of HBV rcDNA; assay type: cell-based, hepatitis B virus; conditions: HepDE19 assay, inhibition of rcDNA formation, bDNA quantitation; read-out: DE-19bDNA EC50

Going from `CN(C(=O)c1ccc2cn[nH]c2c1)C1CNCc2[nH]c(=O)c3cc(F)c(F)cc3c21` (single isomer, unassigned) [Compound 495, N-(8,9-difluoro-6-oxo-1,2,3,4,5,6-hexahydrobenzo[c][1,7]naphthyridin-1-yl)-N-methyl-1H-indazole-6-carboxamide] to `CN(C(=O)c1cc2c(Cl)cccn2c1)C1CNCc2[nH]c(=O)c3cc(F)c(F)cc3c21` (single isomer, unassigned) [Compound 508, 8-Chloro-N-(8,9-Difluoro-6-oxo-1,2,3,4,5,6-hexahydrobenzo[c][1,7]naphthyridin-1-yl)-N-methylindolizine-2-carboxamide], the EC50 falls from over 25000 nM to 11600 nM. The second is the more potent here.

First: CN(C(=O)c1ccc2cn[nH]c2c1)C1CNCc2[nH]c(=O)c3cc(F)c(F)cc3c21 (single isomer, unassigned) [Compound 496, N-(8,9-difluoro-6-oxo-1,2,3,4,5,6-hexahydrobenzo[c][1,7]naphthyridin-1-yl)-N-methyl-1H-indazole-6-carboxamide]
Second: CN(C(=O)c1cc2c(Cl)cccn2c1)C1CNCc2[nH]c(=O)c3cc(F)c(F)cc3c21 (single isomer, unassigned) [Compound 509, 8-Chloro-N-(8,9-Difluoro-6-oxo-1,2,3,4,5,6-hexahydrobenzo[c][1,7]naphthyridin-1-yl)-N-methylindolizine-2-carboxamide]
The EC50 of the first is 420-fold higher: 4200 nM for the first, 10 nM for the second.

First: CN(C(=O)c1cc2sc(F)cc2[nH]1)C1COCc2[nH]c(=O)c3cc(F)ccc3c21 (single isomer, unassigned) [Compound 497, 2-fluoro-N-(8-fluoro-6-oxo-1,4,5,6-tetrahydro-2H-pyrano[3,4-c]isoquinolin-1-yl)-N-methyl-4H-thieno[3,2-b]pyrrole-5-carboxamide]
Second: CN(C(=O)c1cc2sc(F)cc2[nH]1)C1CNCc2[nH]c(=O)c3cc(F)c(F)cc3c21 (single isomer, unassigned) [Compound 499, N-(8,9-difluoro-6-oxo-1,2,3,4,5,6-hexahydrobenzo[c][1,7]naphthyridin-1-y1)-2-fluoro-N-methyl-4H-thieno[3,2-b]pyrrole-5-carboxamide]
The EC50 of the first is 17-fold lower: 1200 nM for the first, 20000 nM for the second. The first is the more potent here.

Compared with `CN(C(=O)c1cc2sc(F)cc2[nH]1)C1COCc2[nH]c(=O)c3cc(F)ccc3c21` (single isomer, unassigned) [Compound 498, 2-fluoro-N-(8-fluoro-6-oxo-1,4,5,6-tetrahydro-2H-pyrano[3,4-c]isoquinolin-1-yl)-N-methyl-4H-thieno[3,2-b]pyrrole-5-carboxamide], `CN(C(=O)c1cc2sc(F)cc2[nH]1)C1CNCc2[nH]c(=O)c3cc(F)c(F)cc3c21` (single isomer, unassigned) [Compound 500, N-(8,9-difluoro-6-oxo-1,2,3,4,5,6-hexahydrobenzo[c][1,7]naphthyridin-1-yl)-2-fluoro-N-methyl-4H-thieno[3,2-b]pyrrole-5-carboxamide] is 2.7-fold lower in EC50: 80 nM for the first, 30 nM for the second. The second is the more potent here.

First: CN(C(=O)c1cc2cc(F)ccc2[nH]1)[C@@H]1CCC(O)c2[nH]c(=O)c3cc(F)c(F)cc3c21 (single isomer, unassigned) [Compound 501]
Second: CN(C(=O)c1cc2ccccc2[nH]1)[C@@H]1CCC(O)c2[nH]c(=O)c3cc(F)c(F)cc3c21 (single isomer, unassigned) [Compound 504]
The EC50 of the first is 58-fold lower: 10 nM for the first, 580 nM for the second. The first is the more potent here.

Compared with `CN(C(=O)c1cc2cc(F)ccc2[nH]1)[C@@H]1CCC(O)c2[nH]c(=O)c3cc(F)c(F)cc3c21` (single isomer, unassigned) [Compound 502], `CN(C(=O)c1cc2ccccc2[nH]1)[C@@H]1CCC(O)c2[nH]c(=O)c3cc(F)c(F)cc3c21` (single isomer, unassigned) [Compound 505] is 1.7-fold higher in EC50: 30 nM for the first, 50 nM for the second.

`CN(C(=O)c1cc2ccccn2c1)C1CNCc2[nH]c(=O)c3cc(F)c(F)cc3c21` (single isomer, unassigned) [Compound 506, N-(8,9-Difluoro-6-oxo-1,2,3,4,5,6-hexahydrobenzo[c][1,7]naphthyridin-1-yl)-N-methylindolizine-2-carboxamide] and `CN(C(=O)C1Nc2ccccc2C1(C)C)C1COCc2[nH]c(=O)c3cc(F)c(F)cc3c21` (centres unmarked) [Compound 57, N-(8,9-Difluoro-6-oxo-1,4,5,6-tetrahydro-2H-pyrano[3,4-c]isoquinolin-1-yl)-N,3,3-trimethylindoline-2-carboxamide] are within 1.5-fold of each other in EC50: 22000 nM for the first, 23000 nM for the second.

Compared with `CN(C(=O)c1cc2ccccn2c1)C1CNCc2[nH]c(=O)c3cc(F)c(F)cc3c21` (single isomer, unassigned) [Compound 507, N-(8,9-Difluoro-6-oxo-1,2,3,4,5,6-hexahydrobenzo[c][1,7]naphthyridin-1-yl)-N-methylindolizine-2-carboxamide], `CN(C(=O)C1Nc2ccccc2C1(C)C)C1COCc2[nH]c(=O)c3cc(F)c(F)cc3c21` (centres unmarked) [Compound 59, N-(8,9-Difluoro-6-oxo-1,4,5,6-tetrahydro-2H-pyrano[3,4-c]isoquinolin-1-yl)-N,3,3-trimethylindoline-2-carboxamide] is 370-fold higher in EC50: 60 nM for the first, 22000 nM for the second. The first is the more potent here.

`CN(C(=O)C1Cc2c(F)cc(F)cc2N1)C1COCc2[nH]c(=O)c3cc(F)c(F)cc3c21` (centres unmarked) [Compound 13, N-(8,9-Difluoro-6-oxo-1,4,5,6-tetrahydro-2H-pyrano[3,4-c]isoquinolin-1-yl)-4,6-difluoro-N-methylindoline-2-carboxamide] showed an EC50 of 12000 nM.
In the case of `CN(C(=O)C1Cc2c(F)cc(F)cc2N1)C1COCc2[nH]c(=O)c3cc(F)c(F)cc3c21` (centres unmarked) [Compound 14, N-(8,9-Difluoro-6-oxo-1,4,5,6-tetrahydro-2H-pyrano[3,4-c]isoquinolin-1-yl)-4,6-difluoro-N-methylindoline-2-carboxamide], the EC50 is reported as 40 nM.
`CN(C(=O)C1Cc2c(F)cc(F)cc2N1)C1COCc2[nH]c(=O)c3cc(F)c(F)cc3c21` (centres unmarked) [Compound 15, N-(8,9-Difluoro-6-oxo-1,4,5,6-tetrahydro-2H-pyrano[3,4-c]isoquinolin-1-yl)-4,6-difluoro-N-methylindoline-2-carboxamide] was tested, and the EC50 was 960 nM.
In the case of `CN(C(=O)C1Cc2c(F)cc(F)cc2N1)C1COCc2[nH]c(=O)c3cc(F)c(F)cc3c21` (centres unmarked) [Compound 16, N-(8,9-Difluoro-6-oxo-1,4,5,6-tetrahydro-2H-pyrano[3,4-c]isoquinolin-1-yl)-4,6-difluoro-N-methylindoline-2-carboxamide], the EC50 is reported as 20 nM.

same assay, conditions: Hepatitis B virus, HepDE19, HepDE19 assay, inhibition of rcDNA formation, bDNA quantitation; read-out: DE-19bDNA EC50

Compared with `CN(C(=O)c1cc2cc(F)c(F)cc2[nH]1)[C@H]1COCc2[nH]c(=O)c3cc(F)c(F)cc3c21` [Compound 41, N-(8,9-difluoro-6-oxo-1,4,5,6-tetrahydro-2H-pyrano[3,4-c]isoquinolin-1-yl)-5,6-difluoro-N-methyl-1H-indole-2-carboxamide], `CN(C(=O)c1cc2cc(F)c(F)cc2[nH]1)[C@@H]1COCc2[nH]c(=O)c3cc(F)c(F)cc3c21` [Compound 42, (S)-N-(8,9-difluoro-6-oxo-1,4,5,6-tetrahydro-2H-pyrano[3,4-c]isoquinolin-1-yl)-5,6-difluoro-N-methyl-1H-indole-2-carboxamide] is 440-fold lower in EC50: 2200 nM for the first, 5 nM for the second. The second is the more potent here.

First: CN(C(=O)c1cn2cc(Cl)ccc2n1)[C@@H]1COCc2[nH]c(=O)c3cc(F)c(F)cc3c21 [Compound 51, (S)-6-Chloro-N-(8,9-difluoro-6-oxo-1,4,5,6-tetrahydro-2H-pyrano[3,4-c]isoquinolin-1-yl)-N-methylimidazo[1,2-a]pyridine-2-carboxamide]
Second: CN(C(=O)c1cn2cc(Cl)ccc2n1)[C@@H]1COCc2[nH]c(=O)c3cc(F)ccc3c21 [Compound 52, (S)-6-Chloro-N-(8-fluoro-6-oxo-1,4,5,6-tetrahydro-2H-pyrano[3,4-c]isoquinolin-1-yl)-N-methylimidazo[1,2-a]pyridine-2-carboxamide]
The EC50 of the first is 3.2-fold lower: 1300 nM for the first, 4100 nM for the second.

Compared with `CCN(C(=O)c1cn2cc(Cl)ccc2n1)[C@@H]1COCc2[nH]c(=O)c3cc(F)ccc3c21` [Compound 53, (S)-6-Chloro-N-ethyl-N-(8-fluoro-6-oxo-1,4,5,6-tetrahydro-2H-pyrano[3,4-c]isoquinolin-1-yl)imidazo[1,2-a]pyridine-2-carboxamide], `CN(C(=O)c1ccc2nncn2c1)[C@@H]1COCc2[nH]c(=O)c3cc(F)c(F)cc3c21` [Compound 70, (S)-N-(8,9-Difluoro-6-oxo-1,4,5,6-tetrahydro-2H-pyrano[3,4-c]isoquinolin-1-yl)-N-methyl-[1,2,4]triazolo[4,3-a]pyridine-6-carboxamide] is 8.8-fold higher in EC50: 2500 nM for the first, 22000 nM for the second. The first is the more potent here.

First: CN(C(=O)C1Nc2ccccc2C1(C)C)C1COCc2[nH]c(=O)c3cc(F)c(F)cc3c21 (centres unmarked) [Compound 56, N-(8,9-Difluoro-6-oxo-1,4,5,6-tetrahydro-2H-pyrano[3,4-c]isoquinolin-1-yl)-N,3,3-trimethylindoline-2-carboxamide]
Second: CN(C(=O)c1cc2ccccn2n1)[C@@H]1COCc2[nH]c(=O)c3cc(F)c(F)cc3c21 [Compound 64, (S)-N-(8,9-Difluoro-6-oxo-1,4,5,6-tetrahydro-2H-pyrano[3,4-c]isoquinolin-1-yl)-N-methylpyrazolo[1,5-a]pyridine-2-carboxamide]
The EC50 of the first is 29-fold higher: 18000 nM for the first, 630 nM for the second.

Going from `CN(C(=O)c1cc2cccnn2c1)[C@@H]1COCc2[nH]c(=O)c3cc(F)c(F)cc3c21` [Compound 65, (S)-N-(8,9-Difluoro-6-oxo-1,4,5,6-tetrahydro-2H-pyrano[3,4-c]isoquinolin-1-yl)-N-methylpyrrolo[1,2-b]pyridazine-6-carboxamide] to `CN(C(=O)c1ccc2cccnc2c1)[C@@H]1COCc2[nH]c(=O)c3cc(F)c(F)cc3c21` [Compound 66, (S)-N-(8,9-Difluoro-6-oxo-1,4,5,6-tetrahydro-2H-pyrano[3,4-c]isoquinolin-1-yl)-N-methylquinoline-7-carboxamide], the EC50 rises from 150 nM to 2300 nM (15-fold).

Going from `CN(C(=O)c1ccc2ncccc2c1)[C@@H]1COCc2[nH]c(=O)c3cc(F)c(F)cc3c21` [Compound 67, (S)-N-(8,9-Difluoro-6-oxo-1,4,5,6-tetrahydro-2H-pyrano[3,4-c]isoquinolin-1-yl)-N-methylquinoline-6-carboxamide] to `CN(C(=O)c1cnc2ccccc2c1)[C@@H]1COCc2[nH]c(=O)c3cc(F)c(F)cc3c21` [Compound 71, (S)-N-(8,9-Difluoro-6-oxo-1,4,5,6-tetrahydro-2H-pyrano[3,4-c]isoquinolin-1-yl)-N-methylquinoline-3-carboxamide], the EC50 falls from 1600 nM to 330 nM (4.8-fold). The second is the more potent here.
